US20120269730A1, “Intracellular Delivery of Contrast Agents with Functionalized Nanoparticles” (Northwestern University, priority 2009, published 2012)
Where “and” joins values, the source holds several entries; their conditions need not be identical. Identical values can stand only once. Like-named read-outs stand apart in the source and are kept apart here.

Legend:
[1] = T1-weighted MR imaging and T1 analysis of solution phantoms (3T and 14.1T); format: physicochemical
Description: (§1) 14.1T MR imaging and T1 measurements were performed on a General Electric/Bruker Omega 600WB 14.1T imaging spectrometer fitted with accustar shielded gradient coils at 25° C. For solution phantoms, 50 […], of 60, 40 and 20 μM Gd(III) (DOTA-Gd(III) and Gd(III)-AuNP) in complete cell media were added to flame-sealed 5¾″ Pasteur pipettes and centrifuged at 4.0° C. and 100×g for 5.0 minutes. Capillaries were then placed in a custom-made glass capillary holder and imaged in a 20 mm birdcage coil. For cell phantoms, approximately 1.5×10^6 NIH/3T3 cells were incubated with 20 or 5.0 μM ([Gd(III)]) Gd(III)-AuNP or DOTA-Gd(III) for 24 hours, rinsed two times with DPBS, and harvested with trypsin. After addition of complete media (1.0 mL total volume) cells were added to flame-sealed 5¾″ Pasteur pipettes and centrifuged at 4.0° C. and 100×g for 5.0 minutes. Capillaries were then placed in a custom-made glass capillary holder and imaged in a 10 mm birdcage coil. Spin lattice relaxation times (T1) were measured using a saturation recovery pulse sequence with static TE (10.18 ms) and variable TR (350, 500, 750, 1000, 1500, 2500, 4000, 7500, 15000 ms) values. […]

[2] = data taken from Merbach et al., 37° C., cited from earlier work
NIH/3T3 and HeLa cells = assay: Cell counting and percent cell viability (Guava ViaCount flow cytometry); format: cell-based; settings: any of the conditions tested
Description: Cell Counting and Percent Cell Viability Determination Using a Guava EasyCyte Mini Personal Cell Analyzer (PCA) Flow Cytometry System. Cells were counted and percent cell viability determined via a Guava EasyCyte mini personal cell analyzer (Guava Technologies, Hayward, Calif., USA). Specifically, after cell harvesting an aliquot (10 or 20 μL) of the cell suspensions were mixed with Guava ViaCount reagent (final sample volume of 200 μL) and allowed to stain at room temperature for at least 5 minutes (no longer than 20 minutes). Stained samples were then vortexed for 5 seconds, after which cells were counted and percent cell viability determined via manual analysis using the ViaCount software module. For each sample, 1000 events were acquired with dilution factors that were determined based upon optimum machine performance (approximately 50-200 cells/μL).
To determine the efficacy of cellular uptake, NIH/3T3 and HeLa cells were labeled with increasing concentrations of DNA-Gd(III)-AuNPs or DOTA-Gd(III) for different amounts of time. Following agent incubation, cells were rinsed with DPBS, counted and then percent viability was assessed via flow cytometry. Gd(III) and Au content were determined via ICP-MS of acid digested samples. […] At all concentrations the Gd(III) uptake was >50-fold higher for DNA-Gd(III)-AuNPs than DOTA-Gd(III). […]

NIH/3T3 cells = assay: 14.1T T1-weighted MR imaging and T1 analysis of labeled cell pellets; format: cell-based; settings: 24 hours, about 10^6 cells
Description: as §1

Structure (SMILES): O=C([O-])CN1CCN(CC(=O)[O-])CCN(CC(=O)O)CCN(CC(=O)[O-])CC1.[Gd+3] [DOTA-Gd(III)]
- reduction in T1, solution phantoms ([1]; 14.1T, 25° C., 60 μM Gd(III), complete cell media): 31%
- r1 600 MHz (14.1T) ([1]; per Gd(III) (ionic), image-based, cell media at 25° C.): 2.1 mM⁻¹ s⁻¹ and 2.2 mM⁻¹ s⁻¹
- r1 60 MHz (1.41T) [2]: 3.2^c mM^−1s^−1
- r1 60 MHz (1.41T) ([2]; listed as unconjugated Gd(III) complex): 3.2 mM⁻¹ s⁻¹
- cell toxicity or cell number variation (NIH/3T3 and HeLa cells): no evidence of cell toxicity or cell number variation
- T1 reduction of labeled cell pellets (NIH/3T3 cells; 5.0 μM Gd(III) incubation): no significant difference from control cell pellets
- T1 reduction of labeled cell pellets (NIH/3T3 cells; 20 μM Gd(III) incubation): no significant difference from control cell pellets
